In patent US7256187B2, “Rifamycin C-11 oxime derivatives effective against drug-resistant microbes” (Cumbre Pharmaceuticals Inc., priority 2004, dated 2007):
Converted amounts (≈) assume the structure as drawn. Where two headings read alike, the source gives them in different places.

Key:
Type in all cases: cell-based
[1] = test system: Haemophilus influenzae ATCC10211; assay: MIC, microbroth dilution; conditions: Haemophilus influenzae ATCC10211, rifS; read-out: Antimicrobial activity (MIC)
[2] = test system: Staphylococcus aureus ATCC29213; assay: MIC, microbroth dilution
[3] = test system: Streptococcus pyogenes ATCC19615; assay: MIC, microbroth dilution; conditions: Streptococcus pyogenes ATCC19615, rifS; read-out: Antimicrobial activity (MIC)
[4] = test system: Streptococcus pneumoniae ATCC6303; assay: MIC, microbroth dilution; conditions: Streptococcus pneumoniae ATCC6303, rifS; read-out: Antimicrobial activity (MIC)
[5] = test system: Staphylococcus aureus ATCC29213 rpoB^H418Y; assay: microbe, parasite or virus in culture
Method: (§1) Representative compounds were assayed for antimicrobial activity as follows: Minimum Inhibitory Concentrations (“MICs”) were determined by the microbroth dilution method as per NCCLS guidelines (National Committee for Clinical Laboratory Standards. 2000. Methods for dilution antimicrobial susceptibility tests for bacteria that grow aerobically, 5th ed. M7-A5. National Committee for Clinical Laboratory Standards, Wayne, Pa.), except that all growth incubations were conducted at 37° C. Bacterial cultures were tested in the following bacteriological media: S. aureus, S. epidermidis, and E. coli in Cation-Adjusted Mueller-Hinton Broth, S. pneumoniae in THY Broth supplemented with 1 mg/mL catalase under 5% CO2 atmosphere, S. pyogenes in THY Broth, E. faecalis in BHI Broth, H. influenzae in BHI Broth supplemented with 0.75 μL of 1 mg/mL NAD and 150 μL of 1 mg/ml hematin per 5 mL, and M. smegmatis in Middlebrook Broth plus ADC Enrichment.
(§2) S. aureus ATCC 29213 RpoB^H418Y is a rifampin-resistant strain with a mutation in the RpoB gene of RNA polymerase. […] S. aureus EN1252a gyrA^S84L grlA^S80F is a quinolone-resistant strain due to double gene mutations of DNA gyrase and topoisomerase IV.

[6] = test system: Staphylococcus aureus EN1252a gyrA^S84L grlA^S80F; assay: microbe, parasite or virus in culture; conditions: read-out: Antimicrobial activity (MIC)
Method: as §1, §2

[7] = test system: Staphylococcus aureus ATCC29213 rpoB^D417Y; assay: microbe, parasite or virus in culture
Method: as §1, §2

[8] = test system: Enterococcus faecalis ATCC29212; assay: MIC, microbroth dilution; conditions: Enterococcus faecalis ATCC29212, rifS; read-out: Antimicrobial activity (MIC)
[9] = test system: Mycobacterium smegmatis ATCC700084; assay: MIC, microbroth dilution; conditions: Mycolicibacterium smegmatis; Mycobacterium smegmatis ATCC700084, rifS; read-out: Antimicrobial activity (MIC)
[10] = MIC, microbroth dilution, panel of strains; conditions: across five rifampin-susceptible Gram-positive strains
Method: as §1
(§3) S. aureus […], S. epidermidis ATCC 12228, S. pneumoniae ATCC6303, S. pyogenes ATCC 19615 and E. faecalis ATCC 29212 are rifampin-susceptible Gram-positive strains. […] The compounds of the current invention show further improved activity against these strains with MICs as low as 0.0002 μg/ml. H. influenzae ATCC 10211 and E. coli ATCC 25922 are Gram-negative bacteria. […]

[11] = test system: Gram-negative bacteria (H. influenzae ATCC 10211 and E. coli ATCC 25922); assay: MIC, microbroth dilution, panel of strains; conditions: Haemophilus influenzae; across H. influenzae ATCC 10211 and E. coli ATCC 25922
Method: as §1, §3

[12] = test system: Escherichia coli ATCC25922; assay: MIC, microbroth dilution; conditions: Escherichia coli ATCC25922, rifS; read-out: Antimicrobial activity (MIC)
[13] = test system: Staphylococcus epidermidis ATCC12228; assay: MIC, microbroth dilution; conditions: Staphylococcus epidermidis ATCC12228, rifS; read-out: Antimicrobial activity (MIC)
[14] = Staphylococcus aureus ATCC29213, rifS, read-out: Antimicrobial activity (MIC)
[15] = Staphylococcus aureus, ATCC29213
[16] = Staphylococcus aureus, ATCC29213, read-out: Antimicrobial activity (MIC)
[17] = Staphylococcus aureus ATCC29213 rpoB^H418Y, rifR, read-out: Antimicrobial activity (MIC)
[18] = Staphylococcus aureus EN1252a gyrA^S84L grlA^S80F, cipR
[19] = Staphylococcus aureus ATCC29213 rpoB^D417Y, rifR, read-out: Antimicrobial activity (MIC)

Compound	MIC [1] [µg/mL]	MIC [2, 14] [µg/mL]	MIC ([2]; Staphylococcus aureus, ATCC29213, S. aureus ATCC 29213 wild type, read-out: MIC) [µg/mL]	MIC [3] [µg/mL]	MIC [4] [µg/mL]	MIC [5, 15] [µg/mL]	MIC [5, 16] [µg/mL]	MIC ([6]; Staphylococcus aureus) [µg/mL]	MIC [7, 15] [µg/mL]	MIC [7, 16] [µg/mL]	MIC [8] [µg/mL]	MIC [9] [µg/mL]	MIC [10] [µg/mL]	MIC [11] [µg/mL]	MIC [12] [µg/mL]	MIC [13] [µg/mL]	MIC [5, 17] [µg/mL]	MIC [6, 18] [µg/mL]	MIC [7, 19] [µg/mL]
CO[C@H]1/C=C/O[C@@]2(C)Oc3c(C)c(O)c4c(O)c(c(/C=N/N5CCN(C)CC5)c(O)c4c3C2=O)NC(=O)/C(C)=C\C=C\[C@H](C)[C@H](O)[C@@H](C)[C@@H](O)[C@@H](C)[C@H](OC(C)=O)[C@@H]1C [rifampin, reference compound]	0.24 (≈ 0.292 µM)	0.008 (≈ 0.00972 µM)	0.008 (≈ 0.00972 µM)	0.013 (≈ 0.0158 µM)	0.061 (≈ 0.0741 µM)	8 (≈ 9.72 µM)	8 (≈ 9.72 µM)	0.004 (≈ 0.00486 µM)	> 64	> 64	1 (≈ 1.22 µM)	64 (≈ 77.8 µM)	0.013 to 1 (≈ 0.0158 to 1.22 µM)	0.24 to 16 (≈ 0.292 to 19.4 µM)	16 (≈ 19.4 µM)	0.03 (≈ 0.0365 µM)			
CO[C@H]1/C=C/O[C@@]2(C)Oc3c(C)c(O)c4c(c3/C2=N/OCCN2CC(C)NC(C)C2)C(=O)C=C(NC(=O)/C(C)=C\C=C\[C@H](C)[C@H](O)[C@@H](C)[C@@H](O)[C@@H](C)[C@H](OC(C)=O)[C@@H]1C)C4=O (stereo partly drawn) [Example 21, 11-Deoxy-11-[2-(3,5-dimethyl-piperazin-1-yl)ethoxyimino]rifamycin S]	0.03 to 2 (≈ 0.0353 to 2.35 µM)	0.004 to 0.5 (≈ 0.0047 to 0.588 µM)		0.0005 to 0.063 (≈ 0.000588 to 0.074 µM)	0.0002 to 0.125 (≈ 0.000235 to 0.147 µM)						2 to 32 (≈ 2.35 to 37.6 µM)	0.5 to 64 (≈ 0.588 to 75.2 µM)			0.125 to 8 (≈ 0.147 to 9.4 µM)	0.0005 to 0.063 (≈ 0.000588 to 0.074 µM)	0.125 to 16 (≈ 0.147 to 18.8 µM)	0.004 to 0.5 (≈ 0.0047 to 0.588 µM)	0.25 to 32 (≈ 0.294 to 37.6 µM)
CO/N=C1/c2c3c(C)c(O)c4c2/C(=N/OC)C=C(NC(=O)/C(C)=C\C=C\[C@H](C)[C@H](O)[C@@H](C)[C@@H](O)[C@@H](C)[C@H](OC(C)=O)[C@H](C)[C@@H](OC)/C=C/O[C@@]1(C)O3)C4=O [Example 5, 4, 11-Dideoxy-4, 11-dimethoxyiminorifamycin S]	0.03 to 2 (≈ 0.0398 to 2.65 µM)	0.004 to 0.5 (≈ 0.00531 to 0.663 µM)		0.0005 to 0.063 (≈ 0.000663 to 0.0836 µM)	0.0002 to 0.125 (≈ 0.000265 to 0.166 µM)						2 to 32 (≈ 2.65 to 42.4 µM)	0.5 to 64 (≈ 0.663 to 84.9 µM)			0.125 to 8 (≈ 0.166 to 10.6 µM)	0.0005 to 0.063 (≈ 0.000663 to 0.0836 µM)	0.125 to 16 (≈ 0.166 to 21.2 µM)	0.004 to 0.5 (≈ 0.00531 to 0.663 µM)	0.25 to 32 (≈ 0.332 to 42.4 µM)
CO[C@H]1/C=C/O[C@@]2(C)Oc3c(C)c(O)c4c(c3/C2=N/OCCN2CCN(c3cccc(C(F)(F)F)c3)CC2)C(=O)C=C(NC(=O)/C(C)=C\C=C\[C@H](C)[C@H](O)[C@@H](C)[C@@H](O)[C@@H](C)[C@H](OC(C)=O)[C@@H]1C)C4=O [Example 18, 11-Deoxy-11-{2-[4-(3-trifluoromethyl-phenyl)-piperazin-1-yl]ethoxyimino}rifamycin S]	0.03 to 2 (≈ 0.031 to 2.07 µM)	0.004 to 0.5 (≈ 0.00414 to 0.517 µM)		0.0005 to 0.063 (≈ 0.000517 to 0.0651 µM)	0.0002 to 0.125 (≈ 0.000207 to 0.129 µM)						2 to 32 (≈ 2.07 to 33.1 µM)	0.5 to 64 (≈ 0.517 to 66.2 µM)			0.125 to 8 (≈ 0.129 to 8.27 µM)	0.0005 to 0.063 (≈ 0.000517 to 0.0651 µM)	0.125 to 16 (≈ 0.129 to 16.5 µM)	0.004 to 0.5 (≈ 0.00414 to 0.517 µM)	0.25 to 32 (≈ 0.259 to 33.1 µM)
CO[C@H]1/C=C/O[C@@]2(C)Oc3c(C)c(O)c4c(c3/C2=N/OC(=O)c2ccncc2)C(=O)C=C(NC(=O)/C(C)=C\C=C\[C@H](C)[C@H](O)[C@@H](C)[C@@H](O)[C@@H](C)[C@H](OC(C)=O)[C@@H]1C)C4=O [Example 8, 11-Deoxy-11-(4-pyridylcarboxy)iminorifamycin S]	0.03 to 2 (≈ 0.0368 to 2.45 µM)	0.004 to 0.5 (≈ 0.0049 to 0.613 µM)		0.0005 to 0.063 (≈ 0.000613 to 0.0772 µM)	0.0002 to 0.125 (≈ 0.000245 to 0.153 µM)						2 to 32 (≈ 2.45 to 39.2 µM)	0.5 to 64 (≈ 0.613 to 78.4 µM)			0.125 to 8 (≈ 0.153 to 9.81 µM)	0.0005 to 0.063 (≈ 0.000613 to 0.0772 µM)	0.125 to 16 (≈ 0.153 to 19.6 µM)	0.004 to 0.5 (≈ 0.0049 to 0.613 µM)	0.25 to 32 (≈ 0.306 to 39.2 µM)
